Results from ChEMBL document CHEMBL5380844, “Discovery of a Novel, Potent, Orally Active, and Safe Inhibitor Targeting Human Mitochondrial RNA Polymerase” (J Med Chem, 2023).
pIC50: −log10 of the molar value.

How the values were obtained:
[1] = Inhibition of ND1 transcript level in human A2780 cells at 500 nM measured after 12 hrs by RT-qPCR analysis relative to control; type: functional
A2780 = experiment: Antiproliferative activity against human A2780 cells incubated for 168 hrs by SRB method; type: functional, cell-based; settings: A2780, 168 h
[2] = Apparent permeability across apical to basolateral side in human Caco-2 cells at 3 uM incubated for 2 hrs by LC-MS/MS analysis; type: ADME, cell-based

| Structure (SMILES) | pIC50 (A2780) | Papp A→B at 2 h, 3 µM [2] [×10⁻⁶ cm/s] | inhibition at 0.5 µM [1] [%] |
| --- | --- | --- | --- |
| C[C@@H](CO)NC(=O)[C@@H](C)Oc1ccc2c(-c3ccc(F)cc3Cl)cc(=O)oc2c1 | 6.68 |  | 32 |
| C[C@@H](Oc1ccc2c(-c3ccc(F)cc3Cl)cc(=O)oc2c1)C(=O)NCCN1CCOCC1 | 5.91 |  | 82 |
| C[C@@H](Oc1ccc2c(-c3ccc(Cl)cc3)cc(=O)oc2c1)C(=O)N1CC2CCC(C1)N2 |  |  | 24 |
| CC(=O)N1CCN(C(=O)[C@@H](C)Oc2ccc3c(-c4ccc(F)cc4Cl)cc(=O)oc3c2)CC1 | 6.65 |  | 27 |
| C[C@@H](Oc1ccc2c(-c3ccc(F)cc3Cl)cc(=O)oc2c1)C(=O)N1CC2(COC2)C1 | 6.12 |  | 68 |
| C[C@@H](Oc1cccc(-c2ccc(F)cc2Cl)c1)C(=O)N1CCC[C@H](C(=O)O)C1 | < 5.00 |  | 95 |
| C[C@@H](Oc1ccc2c(-c3ccc(F)cc3Cl)cc(=O)oc2c1)C(=O)NCCCO | 6.75 |  | 22 |
| C[C@@H](Oc1ccc2c(-c3ccc(F)cc3Cl)cc(=O)oc2c1)C(=O)NCCO | 6.87 |  | 23 |
| C[C@@H](Oc1ccc2c(-c3ccc(F)cc3Cl)cc(=O)oc2c1)C(=O)N1CCSCC1 | 6.52 |  | 34 |
| O=C(O)[C@H]1CCCN(C(=O)C2CC(Oc3ccc4c(-c5ccc(F)cc5Cl)cc(=O)oc4c3)C2)C1 (stereo not given in full) | < 5.00 |  | 101 |
| O=C(O)[C@H]1CCCN(C(=O)C(F)(F)Oc2ccc3c(-c4ccc(F)cc4Cl)cc(=O)oc3c2)C1 | 6.49 |  | 37 |
| C[C@@H](Oc1ccc2c(-c3ccc(F)cc3Cl)cc(=O)oc2c1)C(=O)NCCN1CCS(=O)(=O)CC1 | 5.60 |  | 86 |
| Nc1cc(N2CCCCC2)nc(N)[n+]1[O-] [MINOXIDIL] |  | 6.79 |  |
| O=C(O)[C@H]1CCCN(C(=O)C2(Oc3ccc4c(-c5ccc(F)cc5Cl)cc(=O)oc4c3)CCC2)C1 | 6.16 |  | 42 |
| C[C@@H](Oc1ccc2c(-c3ccc(F)cc3Cl)cc(=O)oc2c1)C(=O)NCc1ccco1 | 6.39 |  | 41 |
| C[C@@H](Oc1ccc2c(-c3ccc(F)cc3Cl)cc(=O)oc2c1)C(=O)N1CCC[C@H]1CO | 6.36 |  | 42 |
| C[C@@H](Oc1ccc(C(=O)c2ccc(F)cc2Cl)cc1)C(=O)N1CCC[C@H](C(=O)O)C1 | < 5.00 |  | 99 |
| C[C@@H](Oc1ccc2c(-c3ccc(F)cc3Cl)cc(=O)oc2c1)C(=O)NCCN(C)C | 6.70 |  | 31 |

| Structure (SMILES) | pIC50 (A2780) | Papp A→B at 2 h, 3 µM [2] [×10⁻⁶ cm/s] | inhibition at 0.5 µM [1] [%] |
| --- | --- | --- | --- |
| C[C@@H](Oc1ccc2c(-c3ccc(F)cc3Cl)cc(=O)oc2c1)C(=O)Nc1ccccn1 | 6.05 |  | 77 |
| C[C@@H](Oc1ccc2c(-c3ccc(F)cc3Cl)cc(=O)oc2c1)C(=O)N1CCS(=O)(=O)CC1 | 6.54 |  | 35 |
| C[C@H](Oc1ccc2c(-c3ccc(F)cc3Cl)cc(=O)oc2c1)C(=O)N1CCC[C@H](C(=O)O)C1 | 6.54 |  | 34 |
| C[C@@H](Oc1ccc2c(-c3ccc(F)cc3Cl)cc(=O)oc2c1)C(=O)N1CCN(C)CC1 | 6.76 |  | 28 |
| C[C@@H](Oc1ccc2c(ccn2-c2ccc(F)cc2Cl)c1)C(=O)N1CCC[C@H](C(=O)O)C1 | < 5.00 |  | 97 |
| C[C@@H](Oc1ccc2c(-c3ccc(F)cc3Cl)cc(=O)[nH]c2c1)C(=O)N1CCC[C@H](C(=O)O)C1 | < 5.00 |  | 88 |
| CC(=O)NCCNC(=O)[C@@H](C)Oc1ccc2c(-c3ccc(F)cc3Cl)cc(=O)oc2c1 | 6.74 |  | 26 |
| C[C@@H](Oc1ccc2c(-c3ccc(F)cc3Cl)cc(=O)oc2c1)C(=O)NCCN | 6.55 |  | 26 |
| C[C@@H](Oc1ccc2c(-c3ccc(F)cc3Cl)cccc2c1)C(=O)N1CCC[C@H](C(=O)O)C1 | 6.19 |  | 45 |
| C[C@@H](Oc1ccc2c(-c3ccc(F)cc3Cl)ncnc2c1)C(=O)N1CCC[C@H](C(=O)O)C1 | < 5.00 |  | 93 |
| C[C@@H](Oc1ccc2c(-c3ccc(F)cc3Cl)cc(=O)oc2c1)C(=O)NCCC1CCOCC1 | 6.09 |  | 73 |
| C[C@@H](Oc1ccc2c(-c3ccc(F)cc3Cl)coc2c1)C(=O)N1CCC[C@H](C(=O)O)C1 | < 5.00 |  | 105 |
| CC(C)(Oc1ccc2c(-c3ccc(F)cc3Cl)cc(=O)oc2c1)C(=O)N1CCC[C@H](C(=O)O)C1 | 6.25 |  | 43 |
| O=C(O)[C@H]1CCCN(C(=O)COc2ccc3c(-c4ccc(F)cc4Cl)cc(=O)oc3c2)C1 | 6.43 |  | 39 |
| C[C@@H](Oc1ccc2c(-c3ccc(F)cc3Cl)cc(=O)oc2c1)C(=O)Nc1ncco1 | 5.91 |  | 81 |
| C[C@@H](Oc1ccc2c(-c3ccc(F)cc3Cl)csc2c1)C(=O)N1CCC[C@H](C(=O)O)C1 | < 5.00 |  | 89 |
| COCCNC(=O)[C@@H](C)Oc1ccc2c(-c3ccc(F)cc3Cl)cc(=O)oc2c1 | 6.82 |  | 25 |

More lines, main results first:

| pIC50 (A2780) | Papp A→B at 2 h, 3 µM [2] [×10⁻⁶ cm/s] | Structure (SMILES) | inhibition at 0.5 µM [1] [%] |
| --- | --- | --- | --- |
| 6.95 |  | C[C@@H](Oc1ccc2c(-c3ccc(F)cc3Cl)cc(=O)oc2c1)C(=O)N1CC2CC(C1)N2 | 24 |
| 5.65 |  | CC(C)c1cc(=O)oc2cc(O[C@H](C)C(=O)N3CC4CCC(C3)N4)ccc12 | 93 |
| 6.34 |  | C[C@@H](Oc1ccc2c(-c3ccc(F)cc3)cc(=O)oc2c1)C(=O)N1CC2CCC(C1)N2 | 44 |
| 6.08 |  | C[C@@H](Oc1ccc2c(-c3ccncc3)cc(=O)oc2c1)C(=O)N1CC2CCC(C1)N2 | 78 |
| 7.24 |  | Cc1cc(Cl)ccc1-c1cc(=O)oc2cc(O[C@H](C)C(=O)N3CC4CCC(C3)N4)ccc12 | 12 |
| 7.37 |  | C[C@@H](Oc1ccc2c(-c3ccc(F)cc3Cl)cc(=O)oc2c1)C(=O)N1CC2CCC(C1)N2 | 8 |
| 6.88 |  | Cc1ccc(-c2cc(=O)oc3cc(O[C@H](C)C(=O)N4CC5CCC(C4)N5)ccc23)c(Cl)c1 | 28 |
| 6.25 |  | C[C@@H](Oc1ccc2c(-c3cccc4ccccc34)cc(=O)oc2c1)C(=O)N1CC2CCC(C1)N2 | 67 |
| 7.51 |  | Cc1ccccc1-c1cc(=O)oc2cc(O[C@H](C)C(=O)N3CC4CCC(C3)N4)ccc12 | 8 |
| 6.90 |  | Cc1cccc(-c2cc(=O)oc3cc(O[C@H](C)C(=O)N4CC5CCC(C4)N5)ccc23)c1 | 25 |
| 6.60 |  | C[C@@H](Oc1ccc2c(C3CCCCC3)cc(=O)oc2c1)C(=O)N1CC2CCC(C1)N2 | 31 |
| 6.67 |  | C[C@@H](Oc1ccc2c(-c3ccccc3F)cc(=O)oc2c1)C(=O)N1CC2CCC(C1)N2 | 33 |
| 6.61 |  | C[C@@H](Oc1ccc2c(-c3cccc(Cl)c3)cc(=O)oc2c1)C(=O)N1CC2CCC(C1)N2 | 32 |
| 6.91 |  | C[C@@H](Oc1ccc2c(-c3ccc(F)cc3Cl)cc(=O)oc2c1)C(=O)N1CCNCC1 | 25 |
| 7.38 |  | Cc1cc(F)ccc1-c1cc(=O)oc2cc(O[C@H](C)C(=O)N3CC4CCC(C3)N4)ccc12 | 12 |
| 7.21 |  | Cc1ccc(-c2cc(=O)oc3cc(O[C@H](C)C(=O)N4CC5CCC(C4)N5)ccc23)cc1 | 11 |
| 7.03 |  | C[C@@H](Oc1ccc2c(-c3ccc(F)cc3Cl)cc(=O)oc2c1)C(=O)N1CCOCC1 | 25 |
| 6.06 |  | C[C@@H](Oc1ccc2c(-c3cccc(F)c3)cc(=O)oc2c1)C(=O)N1CC2CCC(C1)N2 | 75 |
| 6.37 |  | C[C@@H](Oc1ccc2c(-c3ccccc3)cc(=O)oc2c1)C(=O)N1CC2CCC(C1)N2 | 43 |
| 7.19 |  | C[C@@H](Oc1ccc2c(-c3ccc(F)cc3Cl)cc(=O)oc2c1)C(=O)N1C2CCC1CNC2 | 15 |
| 6.89 |  | C[C@@H](Oc1ccc2c(-c3ccsc3)cc(=O)oc2c1)C(=O)N1CC2CCC(C1)N2 | 24 |
| 7.04 |  | C[C@@H](Oc1ccc2c(C34C[C@H]5C[C@H](C3)C[C@@H](C4)C5)cc(=O)oc2c1)C(=O)N1CC2CCC(C1)N2 | 22 |
| 7.13 |  | Cc1cc(C)c(-c2cc(=O)oc3cc(O[C@H](C)C(=O)N4CC5CCC(C4)N5)ccc23)c(C)c1 | 16 |
| 7.28 |  | C[C@@H](Oc1ccc2c(-c3ccccc3Cl)cc(=O)oc2c1)C(=O)N1CC2CCC(C1)N2 | 15 |
| 7.25 |  | C[C@@H](Oc1ccc2c(-c3ccc(Cl)cc3Cl)cc(=O)oc2c1)C(=O)N1CC2CCC(C1)N2 | 24 |
| 5.79 |  | C[C@@H](Oc1ccc2c(-c3cc4ccccc4s3)cc(=O)oc2c1)C(=O)N1CC2CCC(C1)N2 | 85 |
